Assay results published in patent US9023789B2, “Amylin analogs and pharmaceutical compositions thereof” (Novo Nordisk A/S, priority 2012, dated 2015).
pEC50, pIC50: −log10 of the molar value. Numbered stars: 1 amine (or outer) side, 2 acyl side, 3 side chain; on linkers, the order of the positions; unused ones are H or OH. Bridge positions count the residues as written; N and C are the ends. Side chains are listed from the residue outwards. Peptide text beside a SMILES is read from it. * marks the point of attachment. C20 diacid = O=C(O)CCCCCCCCCCCCCCCCCCC(=O)*; γGlu = O=C(O)[C@H](CCC(=O)[*:2])N[*:1]; AEEA = NCCOCCOCC(=O)O

Experiments:
[1] = molecular target: T1, human amylin 3(a) receptor (human calcitonin receptor + RAMP-3) in BHK570 cells (Homo sapiens, UniProt O60896+P30988); assay: ASSAY (II)a functional assay, human amylin receptor (CRE luciferase); type: cell-based; details: for pEC50: human amylin receptor functional potency, assay (II), read-out: hAmylin-R funct. EC50
T1 construct: expressed in transfected cells
Outline: (§1)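 Functional agonism was measured by CRE-luciferase reporter luminescence in BHK cells bearing calcitonin receptor, or calcitonin receptor plus RAMP-3 as the amylin 3(a) receptor. Stimulation lasted 3 hours at 37° C.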

[2] = molecular target: T2, human calcitonin (a) receptor in BHK570 cells (Homo sapiens, UniProt P30988); assay: ASSAY (II)a functional assay, human calcitonin receptor (CRE luciferase); type: cell-based; details: read-out: hCTR funct. EC50
T2 construct: expressed in transfected cells
T2 sequence (P30988 25-474): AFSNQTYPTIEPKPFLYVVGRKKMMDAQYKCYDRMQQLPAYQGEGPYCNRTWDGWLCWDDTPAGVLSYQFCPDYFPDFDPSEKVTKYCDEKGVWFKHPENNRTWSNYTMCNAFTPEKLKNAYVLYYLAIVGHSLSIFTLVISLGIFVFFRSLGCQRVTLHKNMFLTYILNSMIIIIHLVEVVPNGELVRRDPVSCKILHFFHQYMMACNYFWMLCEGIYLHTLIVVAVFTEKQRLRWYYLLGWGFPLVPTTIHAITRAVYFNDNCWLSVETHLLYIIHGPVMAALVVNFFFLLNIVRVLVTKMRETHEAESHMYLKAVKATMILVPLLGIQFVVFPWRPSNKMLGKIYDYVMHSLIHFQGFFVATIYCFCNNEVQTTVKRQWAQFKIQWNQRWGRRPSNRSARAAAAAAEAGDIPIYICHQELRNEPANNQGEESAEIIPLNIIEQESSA
Outline: as §1

[3] = ASSAY (III) ThT fibrillation assay for physical stability; type: physicochemical
Outline: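 Physical stability scored by ThT fluorescence (444 nm excitation, 485 nm emission) tracked every 20 min during 37 °C incubation with 960 rpm shaking, ThT at 1 μM final. Values are replicate means with SD at chosen times; HPLC against pramlintide standard gives initial and post-assay soluble concentrations.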

[4] = molecular target: T3, human calcitonin receptor (Homo sapiens, UniProt P30988); assay: ASSAY (VII) binding to the human calcitonin receptor (SPA, 125I-Calcitonin); details: read-out: hCTR bind IC50;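 further: cell membranes (35 ng/µL) combined with SPA beads in 40 µL of pH 7.4 Hepes buffer, 384-well format, signal counted on a TopCounter instrument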
T3 construct: expressed in transfected cells
T3 sequence (P30988 25-474): T2 sequence (P30988 25-474)

[5] = hCTR funct. EC50 divided by hAmylin-R funct. EC50
[6] = hCTR funct. EC50 over hAmylin-R funct. EC50
[7] = human functional selectivity: hCTR funct. EC50 / hAmylin-R funct. EC50

T1 sequence (O60896 24-148, one chain of several): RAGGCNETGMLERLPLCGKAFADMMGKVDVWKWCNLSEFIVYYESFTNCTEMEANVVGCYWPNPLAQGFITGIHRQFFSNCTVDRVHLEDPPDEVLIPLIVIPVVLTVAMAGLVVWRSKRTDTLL

Compound	Ratio hCT/hAmylin funct. [1, 5]	Ratio hCT/hAmylin funct. [1, 6]	pEC50 [1]	Ratio hCT/hAmylin funct. [1, 7]	pEC50 [2]	ThT pH 4.0 lag time (h) [3] [h]	pIC50 [4]
CC[C@H](C)[C@H](NC(=O)[C@H](C)NC(=O)CNC(=O)[C@H](Cc1ccccc1)NC(=O)[C@H](CC(N)=O)NC(=O)[C@@H]1CCCN1C(=O)[C@H](CO)NC(=O)[C@H](CO)NC(=O)[C@H](Cc1c[nH]cn1)NC(=O)[C@H](CCCNC(=N)N)NC(=O)[C@H](CC(C)C)NC(=O)[C@H](Cc1ccccc1)NC(=O)[C@H](Cc1c[nH]cn1)NC(=O)[C@H](C)NC(=O)[C@H](CC(C)C)NC(=O)[C@H](CCCNC(=N)N)NC(=O)[C@H](CCC(N)=O)NC(=O)[C@@H](NC(=O)[C@H](C)NC(=O)[C@@H]1CSSC[C@H](NC(=O)[C@@H](N)CCCCNC(=O)CC[C@H](NC(=O)CCCCCCCCCCCCCCCCCCC(=O)O)C(=O)O)C(=O)N[C@@H](CC(N)=O)C(=O)N[C@@H]([C@@H](C)O)C(=O)N[C@@H](C)C(=O)N[C@@H]([C@@H](C)O)C(=O)N1)[C@@H](C)O)C(=O)N1CCC[C@H]1C(=O)N[C@@H](CO)C(=O)N[C@@H](CO)C(=O)N[C@H](C(=O)N[C@@H](CC(N)=O)C(=O)N[C@H](C(=O)NCC(=O)N[C@@H](Cc1c[nH]cn1)C(=O)N[C@@H](CC(N)=O)C(=O)N[C@H](C(=O)N[C@@H](Cc1ccc(O)cc1)C(N)=O)[C@@H](C)O)C(C)C)[C@@H](C)O [Example 81] (H-K([γGlu-C20 diacid])CNTATCATQRLAHFLRHSSPNFGAIPSSTNVGHNTY-NH2; disulfide 2-7; N-terminus assumed)	13.3	13.3	9.89	13.3	8.76	45	7.63
CC[C@H](C)[C@H](NC(=O)[C@H](C)NC(=O)CNC(=O)[C@H](Cc1ccccc1)NC(=O)[C@H](CC(N)=O)NC(=O)[C@@H]1CCCN1C(=O)[C@H](CO)NC(=O)[C@H](CO)NC(=O)[C@H](Cc1c[nH]cn1)NC(=O)[C@H](CCCNC(=N)N)NC(=O)[C@H](CC(C)C)NC(=O)[C@H](Cc1ccccc1)NC(=O)[C@H](CC(N)=O)NC(=O)[C@H](C)NC(=O)[C@H](CC(C)C)NC(=O)[C@H](CCCNC(=N)N)NC(=O)[C@H](CCC(N)=O)NC(=O)[C@@H](NC(=O)[C@H](C)NC(=O)[C@@H]1CSSC[C@H](NC(=O)[C@@H](N)CCCCNC(=O)COCCOCCNC(=O)CC[C@H](NC(=O)CCCCCCCCCCCCCCCCCCC(=O)O)C(=O)O)C(=O)N[C@@H](CC(N)=O)C(=O)N[C@@H]([C@@H](C)O)C(=O)N[C@@H](C)C(=O)N[C@@H]([C@@H](C)O)C(=O)N1)[C@@H](C)O)C(=O)N1CCC[C@H]1C(=O)N[C@@H](CO)C(=O)N[C@@H](CO)C(=O)N[C@H](C(=O)N1CCC[C@H]1C(=O)N[C@H](C(=O)NCC(=O)N[C@@H](CO)C(=O)N[C@@H](Cc1c[nH]cn1)C(=O)N[C@H](C(=O)N[C@@H](Cc1ccc(O)cc1)C(N)=O)[C@@H](C)O)C(C)C)[C@@H](C)O [Example 57] (H-K([AEEA-γGlu-C20 diacid])CNTATCATQRLANFLRHSSPNFGAIPSSTPVGSHTY-NH2; disulfide 2-7; N-terminus assumed)	35.0	35.0	10.05	35.0	8.51	45	7.82
CC[C@H](C)[C@H](NC(=O)[C@H](C)NC(=O)CNC(=O)[C@H](Cc1ccccc1)NC(=O)[C@H](CC(N)=O)NC(=O)[C@@H]1CCCN1C(=O)[C@H](CO)NC(=O)[C@H](CO)NC(=O)[C@H](Cc1c[nH]cn1)NC(=O)[C@H](CCCNC(=N)N)NC(=O)[C@H](CC(C)C)NC(=O)[C@H](Cc1ccccc1)NC(=O)[C@H](Cc1c[nH]cn1)NC(=O)[C@H](C)NC(=O)[C@H](CC(C)C)NC(=O)[C@H](CCCNC(=N)N)NC(=O)[C@H](CCC(N)=O)NC(=O)[C@@H](NC(=O)[C@H](C)NC(=O)[C@@H]1CSSC[C@H](NC(=O)[C@@H](N)CCCCNC(=O)CC[C@H](NC(=O)CCCCCCCCCCCCCCCCCCC(=O)O)C(=O)O)C(=O)N[C@@H](CC(N)=O)C(=O)N[C@@H]([C@@H](C)O)C(=O)N[C@@H](C)C(=O)N[C@@H]([C@@H](C)O)C(=O)N1)[C@@H](C)O)C(=O)N1CCC[C@H]1C(=O)N[C@@H](CO)C(=O)N[C@@H](CO)C(=O)N[C@H](C(=O)N[C@@H](CC(N)=O)C(=O)N[C@H](C(=O)NCC(=O)N[C@@H](CCCNC(=N)N)C(=O)N[C@@H](CC(N)=O)C(=O)N[C@H](C(=O)N[C@@H](Cc1ccc(O)cc1)C(N)=O)[C@@H](C)O)C(C)C)[C@@H](C)O [Example 85] (H-K([γGlu-C20 diacid])CNTATCATQRLAHFLRHSSPNFGAIPSSTNVGRNTY-NH2; disulfide 2-7 (inferred); N-terminus assumed)	26.6	26.6	9.84	26.6	8.41	45	7.09

Now from value to molecule:

Ratio hCT/hAmylin funct. [1, 5]	Ratio hCT/hAmylin funct. [1, 6]	pEC50 [1]	Ratio hCT/hAmylin funct. [1, 7]	pEC50 [2]	ThT pH 4.0 lag time (h) [3] [h]	pIC50 [4]	Compound
6.3	6.3	9.39	6.3	8.59	45	8.37	CC[C@H](C)[C@H](NC(=O)[C@H](C)NC(=O)CNC(=O)[C@H](Cc1ccccc1)NC(=O)[C@H](CC(N)=O)NC(=O)[C@@H]1CCCN1C(=O)[C@H](CO)NC(=O)[C@H](CO)NC(=O)[C@H](Cc1c[nH]cn1)NC(=O)[C@H](CCCNC(=N)N)NC(=O)[C@H](CC(C)C)NC(=O)[C@H](Cc1ccccc1)NC(=O)[C@H](CCC(=O)O)NC(=O)[C@H](C)NC(=O)[C@H](CC(C)C)NC(=O)[C@H](CCCNC(=N)N)NC(=O)[C@H](CCC(N)=O)NC(=O)[C@@H](NC(=O)[C@H](C)NC(=O)[C@@H]1CSSC[C@H](NC(=O)[C@@H](N)CCCCNC(=O)CC[C@H](NC(=O)CCCCCCCCCCCCCCCCCCC(=O)O)C(=O)O)C(=O)N[C@@H](CC(N)=O)C(=O)N[C@@H]([C@@H](C)O)C(=O)N[C@@H](C)C(=O)N[C@@H]([C@@H](C)O)C(=O)N1)[C@@H](C)O)C(=O)N1CCC[C@H]1C(=O)N[C@@H](CO)C(=O)N[C@@H](CO)C(=O)N[C@H](C(=O)N[C@@H](CC(N)=O)C(=O)N[C@H](C(=O)NCC(=O)N[C@@H](Cc1c[nH]cn1)C(=O)N[C@@H](CCC(=O)O)C(=O)N[C@H](C(=O)N[C@@H](Cc1ccc(O)cc1)C(N)=O)[C@@H](C)O)C(C)C)[C@@H](C)O [Example 107] (H-K([γGlu-C20 diacid])CNTATCATQRLAEFLRHSSPNFGAIPSSTNVGHETY-NH2; disulfide 2-7 (inferred))
8.1	8.1	9.96	8.1	9.05	14	8.46	CC[C@H](C)[C@H](NC(=O)[C@H](C)NC(=O)CNC(=O)[C@H](Cc1ccccc1)NC(=O)[C@H](CC(N)=O)NC(=O)[C@@H]1CCCN1C(=O)[C@H](CO)NC(=O)[C@H](CO)NC(=O)[C@H](Cc1c[nH]cn1)NC(=O)[C@H](CCCNC(=N)N)NC(=O)[C@H](CC(C)C)NC(=O)[C@H](Cc1ccccc1)NC(=O)[C@H](CO)NC(=O)[C@H](C)NC(=O)[C@H](CC(C)C)NC(=O)[C@H](CCCNC(=N)N)NC(=O)[C@H](CCC(N)=O)NC(=O)[C@@H](NC(=O)[C@H](C)NC(=O)[C@@H]1CSSC[C@H](NC(=O)[C@@H](N)CCCCNC(=O)CC[C@H](NC(=O)CC[C@H](NC(=O)CCCCCCCCCCCCCCCCCCC(=O)O)C(=O)O)C(=O)O)C(=O)N[C@@H](CC(N)=O)C(=O)N[C@@H]([C@@H](C)O)C(=O)N[C@@H](C)C(=O)N[C@@H]([C@@H](C)O)C(=O)N1)[C@@H](C)O)C(=O)N1CCC[C@H]1C(=O)N[C@@H](CO)C(=O)N[C@@H](CO)C(=O)N[C@H](C(=O)N[C@@H](CC(N)=O)C(=O)N[C@H](C(=O)NCC(=O)N1CCC[C@H]1C(=O)N[C@@H](CCC(=O)O)C(=O)N[C@H](C(=O)N[C@@H](Cc1ccc(O)cc1)C(N)=O)[C@@H](C)O)C(C)C)[C@@H](C)O [Example 120] (H-K([γGlu-γGlu-C20 diacid])CNTATCATQRLASFLRHSSPNFGAIPSSTNVGPETY-NH2; disulfide 2-7 (inferred); N-terminus assumed)
